Data as given in paper PMC6961345 (Antiviral Chemistry & Chemotherapy, 2018).
Where “and” joins values, the source holds several entries; their conditions need not be identical. Equal entries are not always repeated. Entries after “also recorded” stand apart in the source; their conditions may differ. Where two headings read alike, the source gives them in different places.

Tests used:
[1] = test system: A/Brisbane/59/2007 (H1N1); assay: microbe, parasite or virus in culture; format: cell-based, influenza A virus; details: for EC90: two independent assays
[2] = test system: A/Tennessee/1-560/2009 (H1N1)pdm09; assay: microbe, parasite or virus in culture; format: cell-based, influenza A virus; details: for EC90: two independent assays
[3] = test system: A/Perth/16/2009 (H3N2); assay: microbe, parasite or virus in culture; format: cell-based, influenza A virus; details: for EC90: two independent assays
[4] = test system: B/Texas/06/2011; assay: microbe, parasite or virus in culture; format: cell-based, influenza B virus; details: for EC90: two independent assays
[5] = test system: A/Vietnam/1203/2004 (H5N1); assay: microbe, parasite or virus in culture; format: cell-based, influenza A virus; details: for EC90: Influenza A virus, H5N1, 48 h
[6] = test system: A/Anhui/1/2013 (H7N9); assay: microbe, parasite or virus in culture; format: cell-based, influenza A virus; details: for EC90: Influenza A virus, H7N9, 48 h
[7] = test system: influenza A and B viruses; assay: microbe, parasite or virus in culture; format: cell-based
[8] = test system: influenza A/Brisbane/59/2007 (H1N1) virus; format: cell-based
[9] = test system: influenza A/Brisbane/59/2007 (H1N1) virus; format: cell-based; remark: listed apart in the source
[10] = test system: influenza A/Brisbane/59/2007 (H1N1) virus; assay: Time-of-addition experiment in dNHBE cells; format: cell-based
[11] = test system: viral M gene RNA (A/Brisbane/59/2007); format: cell-based, influenza A virus; details: 8, 12, 18 and 24 h
[12] = test system: segment 7 viral, complementary, and messenger RNA (A/Brisbane/59/2007); format: cell-based, influenza A virus; details: 24 h incubation
[13] = test system: HA protein (A/Brisbane/59/2007); format: cell-based, influenza A virus
[14] = test system: MDCK cells; details: 100 µM enisamium iodide, 24 h, n = 3 wells
[15] = test system: Undifferentiated NHBE cells; details: 2000 µM enisamium chloride, 24 h
[16] = test system: Differentiated NHBE cells; details: for enisamium uptake: 1000 µM, 2000 µM (Figure 2 legend)
[17] = CC50 divided by EC90, dNHBE cells

C[n+]1ccc(C(=O)NCc2ccccc2)cc1 [enisamium, N-methyl-4-benzylcarbamidopyridinium]
Selectivity index [1, 17]: 23
EC90 ([1]; Influenza A virus, H1N1, 48 h): 412 µM
EC90 [1]: 466 µM
Selectivity index [2, 17]: 34
EC90 ([2]; Influenza A virus, H1N1, 48 h): 233 µM
EC90 [2]: 351 µM
Selectivity index [3, 17]: 30
EC90 ([3]; Influenza A virus, H3N2, 48 h): 287 µM
EC90 [3]: 375 µM
Selectivity index [4, 17]: 64
EC90 ([4]; Influenza B virus, 48 h): 105 µM
EC90 [4]: 209 µM
Selectivity index [5]: 25
EC90 [5]: 400 µM
Selectivity index [6]: 24
EC90 [6]: 410 µM
EC90 ([7]; Influenza A virus, read-out: 90% effective (EC90) concentration range): 157 to 439 µM
reduction of virus titers ([7]; at certain concentrations, dNHBE cells): 100 fold
Selectivity index values (CC50 divided by EC90) ([7]; range over all viruses tested, dNHBE cells): 23- to 64 and > 20
Antiviral activity in MDCK cells (plaque number/size, virus titers) [8]: no antiviral activity was found; also recorded: did not reduce; also recorded: ineffective
antiviral effect at lower concentrations ([9]; 100 and 500 µM, 24 h pretreatment): did not appreciably show an antiviral effect
intracellular concentration required for achieving an antiviral activity ([9]; dNHBE cells): exceeds 1885 ng/10^6 cells
inhibition of virus replication (virus yield reduction) [10]: 2.3–2.6 log10TCID50/ml
reductions in virus titers [10]: ≥ 100 fold
virus yield reduction [10]: 1.3 log10TCID50/ml and 0.7 log10TCID50/ml
viral M gene RNA versus untreated cells [11]: lower
inhibition of viral RNA synthesis [12]: nearly a complete inhibition
amount of detectable HA protein [13]: markedly decreased
Concentration of enisamium, Intracellular (mean ± SD) [14]: 27.9 ± 1.4 ng/10^6 cells
Concentration of enisamium, Intracellular (mean ± SD) ([15]; n = 3 wells): 4110 ± 830 ng/10^6 cells
Permeability (mean ± SD) ([15]; ratio intracellular to initial input): 0.85 ± 0.21%
Intracellular concentration of enisamium (mean ± SD) ([16]; 10 µM enisamium, 24 h): 36.8 ng/10^6 cells and 36.8 ± 3.9 ng/10^6 cells
Permeability (mean ± SD) ([16]; 10 µM enisamium, 24 h): 1.40 ± 0.15%
Intracellular concentration of enisamium (mean ± SD) ([16]; 50 µM enisamium, 24 h): 213 ng/10^6 cells and 213 ± 34 ng/10^6 cells
Permeability (mean ± SD) ([16]; 50 µM enisamium, 24 h): 1.62 ± 0.26%
Intracellular concentration of enisamium (mean ± SD) ([16]; 100 µM enisamium, 24 h): 410 ng/10^6 cells and 410 ± 77 ng/10^6 cells
Permeability (mean ± SD) ([16]; 100 µM enisamium, 24 h): 1.56 ± 0.29%
Intracellular concentration of enisamium (mean ± SD) ([16]; 500 µM enisamium, 24 h): 1727 ng/10^6 cells and 1727 ± 108 ng/10^6 cells
Permeability (mean ± SD) ([16]; 500 µM enisamium, 24 h): 1.31 ± 0.08%
Intracellular concentration of enisamium (mean ± SD) ([16]; 1000 µM enisamium, 24 h): 3009 ng/10^6 cells and 3009 ± 132 ng/10^6 cells
Permeability (mean ± SD) ([16]; 1000 µM enisamium, 24 h): 1.15 ± 0.05%
Concentration of enisamium, Intracellular (mean ± SD) ([16]; 2000 µM enisamium chloride, 24 h, n = 3 wells): 10,700 ± 1900 ng/10^6 cells
Permeability, all concentrations tested ([16]; 10-1000 µM enisamium, 24 h): 1.1–1.6%
enisamium uptake ([16]; exposure 0.25 h): 482 ng/10^6 cells
enisamium uptake ([16]; exposure 24 h): 2732 ng/10^6 cells
Permeability (mean ± SD) ([16]; ratio intracellular to initial input, 2000 µM enisamium chloride, 24 h): 1.9% and 1.90 ± 0.20%

CCC(CC)O[C@@H]1C=C(C(=O)O)C[C@H](N)[C@H]1NC(C)=O [oseltamivir carboxylate]
EC90 ([1]; Influenza A virus, H1N1, 48 h): < 1 µM
EC90 ([2]; Influenza A virus, H1N1, 48 h): < 1 µM
EC90 ([3]; Influenza A virus, H3N2, 48 h): < 1 µM
EC90 ([4]; Influenza B virus, 48 h): < 1 µM
EC90 [5]: < 1 µM
EC90 [6]: < 1 µM
inhibition of virus replication at 24 and 48 h postinfection [9]: inhibited virus replication
